From patent US10118954B2, “Apelin analogues” (University of Ulster, priority 2014, dated 2018)
Where no end group is shown, it is not given here.

Tests used:
[1] = Degradation of apelin peptides by plasma from fasted normal NIH Swiss mice (rp-HPLC, MALDI-TOF MS); assay type: in vitro ADME; conditions: for half-life at 263 µg/mL / remaining at 4 h, 263 µg/mL: NIH Swiss, pH 7.4
Experimental: Degradation of Apelin Peptides by Plasma from Fasted Normal NIH Swiss Mice […] The enzymatic reaction was stopped by adding 50 μl of 10% TFA (0.1% v/v; Sigma-Aldrich Ltd, (Poole, Dorset, UK) and frozen at -20° C. until separation. The terminated reaction products were then applied to an analytical Vydac C-8 column (4.6×150 mm; Phenomenex, Macclesfield, Cheshire, UK) for rp-HPLC analysis. The absorbance was monitored at 214 nm using a […] UV 2000 detector (Thermoquest Limited, Manchester, UK) and the traces were recorded by Thermo Electron ChromQuest data collection software (version 4). HPLC peak fractions were collected manually and subjected to MALDI-TOF mass spectrometry for peptide identification. Degradation profile of various apelin-13 related analogues: plasma incubations (4 h) were separated on a Vydac C-8 analytical HPLC column and all peaks were collected prior to analysis by MALDI-TOF mass spectrometry. Degradation fragments, actual molecular weights (Mr) and retention times (RT) are shown. Theoretical molecular weights of each fragment are shown in brackets. […] Degradation fragments, theoretical molecular weights (Mr) and retention times (RT) are shown. Theoretical molecular weights of each fragment are shown in brackets.

[2] = system: NIH Swiss mice fed a high-fat diet for 150 days; test: Acute and delayed i.p. glucose tolerance test, blood glucose and plasma insulin; assay type: in vivo; conditions: for Effect on the glucose lowering properties of (Tyr^13)apelin-13 and apelin-13-amide: administered in combination, each 25 nmol/kg
Experimental: Plasma glucose and plasma insulin concentrations were measured prior to and after i.p. administration of glucose alone (18 mmol/kg body weight), or in combination with apelin analogues (25 nmol/kg body weight) in 18 h fasted mice fed a high-fat diet for 150 days. Values represent mean±SEM for eight mice (n=8). *P<0.05, **P<0.01 and ***P<0.001 compared to glucose alone. FIG. 6 illustrates effect of i.p. administration of glucose alone (18 mmol/kg body weight), ([…])apelin-13 and ([…])apelin-13 alone or in combination (each 25 nmol/kg body weight) on (A) blood glucose and (B) plasma insulin in 18 h fasted mice fed a high-fat diet for 150 days. Values represent mean±SEM for eight mice (n=8). *p<0.05 and **p<0.01 compared to glucose alone, ^+P<0.05 compared to ([…])apelin-13, ^∇P<0.05 and ^∇∇P<0.01 compared to ([…])apelin-13. FIG. 10 illustrates tests conducted 2 h after administration of apelin related analogues (25 nmol/kg body wt) in 18 h fasted mice fed a high-fat diet for 150 days. (A) Blood glucose and (B) plasma insulin was measured before and after i.p. administration of glucose (18 mmol/kg body wt) alone or in combination with apelin analogues. Values represent mean±SEM for eight mice (n=8). *P<0.05 and **P<0.01 compared to glucose alone. FIG. 11 illustrates tests conducted 8 h after administration of apelin related analogues (25 nmol/kg body wt) in 18 h fasted mice fed a high-fat diet for 150 days. (A) Blood glucose and (B) plasma insulin was measured before and after i.p. administration of glucose (18 mmol/kg body wt) alone or in combination with apelin analogues. Values represent mean±SEM for eight mice (n=8). *P<0.05 and **P<0.01 compared to glucose alone. FIG. 12 illustrates acute effects of fatty acid modified apelin analogues on glucose-lowering and insulin release in high fat fed Swiss NIH mice with dietary-induced diabetes. (A) Blood glucose and (B) plasma insulin concentrations were measured prior to and after i.p. administration of glucose alone (18 mmol/kg body weight), or in combination with apelin analogues (25 nmol/kg body weight) in 18 h fasted mice fed a high-fat diet for 150 days. Values represent mean±SEM for eight mice (n=8). *P<0.05, compared to glucose alone. FIG. 13 illustrates tests conducted 16 h after administration of fatty acid apelin analogues (25 nmol/kg body wt) in mice fed a high-fat diet for 150 days. (A) Blood glucose and (B) plasma insulin was measured before and after i.p. administration of glucose (18 mmol/kg body wt) alone or in combination with apelin analogues. Values represent mean±SEM for eight mice (n=8). *P<0.05, **P<0.01 and ***P<0.001 compared to glucose alone. NIH Swiss mice (Harlan UK Ltd., Blackthorne, UK) were derived from a nucleus colony obtained from the National Institute of Health, Bethesda, Md., USA. One group of mice were maintained on a standard rodent diet (10% fat, 30% protein, 60% carbohydrate; percent of total energy 12.99 kJ/g, Trouw Nutrition, Cheshire, UK) and used as a model of normal glycaemia. Other NIH Swiss mice were maintained on a high fat diet (45% fat, 20% protein, 35% carbohydrate; percent of total energy 26.15 […], UK) from 8 weeks of age for 150 days to produce a model of diet induced obesity-diabetes. […] All mice were housed in an air-conditioned room maintained at 22±2° C. with a 12 h light: 12 h dark cycle (08:00-20:00 h), were singly caged, and selected for experimental groups according to body weight and non-fasted blood glucose. Drinking water and diet were freely available. All animal studies were performed in accordance with the UK Animals (Scientific Procedures) Act 1986. For acute in vivo studies, blood samples were collected from the cut tip of the tail vain of fasted, conscious mice into fluoride/heparin coated glucose microcentrifuge tubes (Sarstedt, Germany) immediately prior to (t=0) and at 15, 30, 60 and 105 min following i.p. injection of glucose ([…]).

[3] = acute, alone and in combination, each 25 nmol/kg i.p. with glucose, Table 5
[4] = acute, peptide 25 nmol/kg i.p. with glucose 18 mmol/kg, Table 4
[5] = following a 2 h delay, 25 nmol/kg
[6] = following a 8 h delay, 25 nmol/kg

## CSCC[C@H](NC(=O)[C@@H]1CCCN1C(=O)CNC(=O)[C@H](CCCCN)NC(=O)[C@H](Cc1c[nH]cn1)NC(=O)[C@H](CO)NC(=O)[C@H](CC(C)C)NC(=O)[C@H](CCCNC(=N)N)NC(=O)[C@@H]1CCCN1C(=O)[C@H](CCCNC(=N)N)NC(=O)[C@@H](N)CCC(N)=O)C(=O)N1CCC[C@H]1C(=O)N[C@@H](Cc1ccc(O)cc1)C(=O)O [(Tyr^13)apelin-13]
[1]
  Degradation fragment, Peak 1: (Tyr^13)apelin-13 (1-7)
  Degradation fragment, Peak 2: (Tyr^13)apelin-13 (1-12)
  Rank order of stability: 10
[1]; mouse, plasma
  half-life at 263 µg/mL: 8.5 h
  remaining at 4 h, 263 µg/mL: 76.7 ± 1.3%
[2]; acute, Table 4
  Rank order on basis of anti-hyperglycaemic efficacy: 4
[2]; [3]
  Glucose lowering, where glucose alone = 100%: 77% (*)
  Insulin secretion, where glucose alone = 100%: 131% (*)
[2]; [4]
  Blood glucose as percent of glucose-alone control (lower = stronger glucose lowering): 77% (*)
  Insulin secretion, where glucose alone = 100%: 131% (*)
[2]; following a 2 h delay
  Rank order on basis of anti-hyperglycaemic efficacy: 4
[2]; [5]
  Blood glucose as percent of glucose-alone control (lower = stronger glucose lowering): 85% ^
  Insulin secretion, where glucose alone = 100%: 116% ^
[2]; following a 8 h delay
  Rank order on basis of anti-hyperglycaemic efficacy: 4
[2]; [6]
  Blood glucose as percent of glucose-alone control (lower = stronger glucose lowering): 91% ^
  Insulin secretion, where glucose alone = 100%: 104%

## CSCC[C@H](NC(=O)[C@@H]1CCCN1C(=O)CNC(=O)[C@H](CCCCN)NC(=O)[C@H](Cc1cnc[nH]1)NC(=O)[C@H](CO)NC(=O)[C@H](CC(C)C)NC(=O)[C@H](CCCNC(=N)N)NC(=O)[C@@H]1CCCN1C(=O)[C@H](CCCNC(=N)N)NC(=O)[C@@H]1CCC(=O)N1)C(=O)N1CCC[C@H]1C(=O)N[C@@H](C)C(=O)O [pGlu(Ala^13)apelin-13, pGlu (Ala^13)apelin-13]
[1]
  Degradation fragment, Peak 1: (1-7)
  Rank order of stability: 6
[1]; mouse, plasma
  half-life at 263 µg/mL: 11.1 h
  remaining at 4 h, 263 µg/mL: 74.4 ± 5.2%
[2]; acute, Table 4
  Rank order on basis of anti-hyperglycaemic efficacy: 7
[2]; [4]
  Blood glucose as percent of glucose-alone control (lower = stronger glucose lowering): 110% ^
  Insulin secretion, where glucose alone = 100%: 86% (*)

## CSCC[C@H](NC(=O)[C@@H]1CCCN1C(=O)CNC(=O)[C@H](CCCCN)NC(=O)[C@H](Cc1c[nH]cn1)NC(=O)[C@H](CO)NC(=O)[C@H](CC(C)C)NC(=O)[C@H](CCCNC(=N)N)NC(=O)[C@@H]1CCCN1C(=O)[C@H](CCCNC(=N)N)NC(=O)[C@@H](N)CCC(N)=O)C(=O)N1CCC[C@H]1C(=O)N[C@@H](C)C(=O)O [(Ala^13)apelin-13, reference compound]
[1]
  Degradation fragment, Peak 1: (Ala^13)apelin-13 (1-8)
  Degradation fragment, Peak 2: (Ala^13)apelin-13 (1-11)
  Rank order of stability: 8
[1]; mouse, plasma
  half-life at 263 µg/mL: 10.3 h
  remaining at 4 h, 263 µg/mL: 70.5 ± 2.2%
[2]; acute, Table 4
  Rank order on basis of anti-hyperglycaemic efficacy: 9
[2]; [3]
  Glucose lowering, where glucose alone = 100%: 118% (*)
  Insulin secretion, where glucose alone = 100%: 74% (*)
[2]; [4]
  Blood glucose as percent of glucose-alone control (lower = stronger glucose lowering): 118% (*)
  Insulin secretion, where glucose alone = 100%: 74% (**)
[2]
  Effect on the glucose lowering properties of (Tyr^13)apelin-13 and apelin-13-amide: blocked the glucose lowering properties

## CSCC[C@H](NC(=O)[C@@H]1CCCN1C(=O)CNC(=O)[C@H](CCCCN)NC(=O)[C@H](Cc1c[nH]cn1)NC(=O)[C@H](CO)NC(=O)[C@H](CC(C)C)NC(=O)[C@H](CCCNC(=N)N)NC(=O)[C@@H]1CCCN1C(=O)[C@H](CCCNC(=N)N)NC(=O)[C@@H]1CCC(=O)N1)C(=O)N1CCC[C@H]1C(=O)N[C@@H](Cc1ccc(O)cc1)C(=O)O [pGlu(Tyr^13)apelin-13, pGlu (Tyr^13)apelin-13]
[1]
  Degradation fragment, Peak 1: (1-5)
  Degradation fragment, Peak 2: (1-6)
  Degradation fragment, Peak 3: (1-12)
  Rank order of stability: 4
[1]; mouse, plasma
  half-life at 263 µg/mL: 12.2 h
  remaining at 4 h, 263 µg/mL: 79 ± 0.6%
[2]; acute, Table 4
  Rank order on basis of anti-hyperglycaemic efficacy: 3
[2]; [4]
  Blood glucose as percent of glucose-alone control (lower = stronger glucose lowering): 71% (*)
  Insulin secretion, where glucose alone = 100%: 138% (**)
[2]; following a 2 h delay
  Rank order on basis of anti-hyperglycaemic efficacy: 3
[2]; [5]
  Blood glucose as percent of glucose-alone control (lower = stronger glucose lowering): 78% (**)
  Insulin secretion, where glucose alone = 100%: 142% (**)
[2]; following a 8 h delay
  Rank order on basis of anti-hyperglycaemic efficacy: 2
[2]; [6]
  Blood glucose as percent of glucose-alone control (lower = stronger glucose lowering): 86% (*)
  Insulin secretion, where glucose alone = 100%: 112%

## LVQPRGSRNGPGPWQGGRRKFRRQRPRLSHKGPMPF [Apelin-36, reference compound]
[1]
  Rank order of stability: 15
[1]; mouse, plasma
  half-life at 263 µg/mL: 1.3 h
  remaining at 4 h, 263 µg/mL: 5.5 ± 0.6%

## CSCC[C@H](NC(=O)[C@@H]1CCCN1C(=O)CNC(=O)[C@H](CCCCN)NC(=O)[C@H](Cc1c[nH]cn1)NC(=O)[C@H](CO)NC(=O)[C@H](CC(C)C)NC(=O)[C@H](CCCNC(=N)N)NC(=O)[C@@H]1CCCN1C(=O)[C@H](CCCNC(=N)N)NC(=O)[C@@H](N)CCC(N)=O)C(=O)N1CCC[C@H]1C(=O)N[C@H](C(=O)O)C(C)C [(Val^13)apelin-13]
[1]
  Degradation fragment, Peak 1: (Val^13)apelin-13 (1-12)
  Rank order of stability: 11
[1]; mouse, plasma
  half-life at 263 µg/mL: 7.7 h
  remaining at 4 h, 263 µg/mL: 66.5 ± 1.1%
[2]; acute, Table 4
  Rank order on basis of anti-hyperglycaemic efficacy: 10
[2]; [3]
  Glucose lowering, where glucose alone = 100%: 124% (**)
  Insulin secretion, where glucose alone = 100%: 68% (**)
[2]; [4]
  Blood glucose as percent of glucose-alone control (lower = stronger glucose lowering): 124% (**)
  Insulin secretion, where glucose alone = 100%: 68% (*)
[2]
  Effect on the glucose lowering properties of (Tyr^13)apelin-13 and apelin-13-amide: blocked the glucose lowering properties

## CSCC[C@H](NC(=O)[C@@H]1CCCN1C(=O)CNC(=O)[C@H](CCCCN)NC(=O)[C@H](Cc1c[nH]cn1)NC(=O)[C@H](CO)NC(=O)[C@H](CC(C)C)NC(=O)[C@H](CCCNC(=N)N)NC(=O)[C@@H]1CCCN1C(=O)[C@H](CCCNC(=N)N)NC(=O)[C@@H]1CCC(=O)N1)C(=O)N1CCC[C@H]1C(=O)N[C@H](C(=O)O)C(C)C [pGlu(Val^13)apelin-13, pGlu (Val^13)apelin-13]
[1]
  Degradation fragment, Peak 1: (1-6)
  Degradation fragment, Peak 2: (1-12)
  Rank order of stability: 9
[1]; mouse, plasma
  half-life at 263 µg/mL: 9.8 h
  remaining at 4 h, 263 µg/mL: 76.2 ± 1.9%
[2]; acute, Table 4
  Rank order on basis of anti-hyperglycaemic efficacy: 8
[2]; [4]
  Blood glucose as percent of glucose-alone control (lower = stronger glucose lowering): 116% (*)
  Insulin secretion, where glucose alone = 100%: 75% (**)

## CSCC[C@H](NC(=O)[C@@H]1CCCN1C(=O)CNC(=O)[C@H](CCCCN)NC(=O)[C@H](Cc1c[nH]cn1)NC(=O)[C@H](CO)NC(=O)[C@H](CC(C)C)NC(=O)[C@H](CCCNC(=N)N)NC(=O)[C@@H]1CCCN1C(=O)[C@@H](N)CCCNC(=N)N)C(=O)N1CCC[C@H]1C(=O)N[C@@H](Cc1ccccc1)C(=O)O [Apelin-12, reference compound]
[1]
  Rank order of stability: 13
[1]; mouse, plasma
  remaining at 4 h, 263 µg/mL: 39.5 ± 1.9%
  half-life: 3.4 h
